Key:
Type in all cases: in vivo
[1] = system: Drosophila suzukii; experiment: Evaluation of the copulation of Drosophila suzukii; conditions: 10 min observation
Experimental: 2. Evaluation of the Copulation From the films recorded for studying the courtship behavior of Drosophila suzukii, a percentage of the number of pairs copulating during the 10 minutes of observation was calculated on the basis of the composition in which the filter paper was soaked. A statistical evaluation was carried out, and different tests were performed. In particular, a Kruskal-Wallis test followed by a post-hoc Dunn's Multiple Comparison Test were carried out (GraphPad, Prism6) in order to quantify the influence, on the number of copulating individuals, of the composition in which the paper is soaked and which involves a release of volatile compounds and an odor perceived.

[2] = system: Drosophila melanogaster; experiment: Anesthesia test, Drosophila melanogaster; conditions: 2% in paraffin oil
Experimental: The devices used were similar to the devices for studying the courtship (example 1 above), except for the volume of the space into which the files were introduced, which was 45.24 or 22.62 cm^3. 9 discs of filter paper (Whatman, filter paper 42), each soaked in 10 μl of a composition comprising butyric acid and/or propionic acid and/or a derivative of propionic acid diluted in paraffin oil were deposited in the device. The different compositions used comprised, respectively, 2% propionic acid or 2% butyric acid or 5% ethyl propanoate or 10% ethyl propanoate or 30% ethyl propanoate. For each composition, the number of flies was, respectively, 30 and 24 males, 30 and 11 females for Drosophila melanogaster, and 24, 16 and 4 males, 28, 26, 6, 5 and 4 females for Drosophila suzukii. In order to avoid any contact of the flies with the soaked disks of paper, a gauze (netting) was arranged above said papers. The drosophilae could move freely on said gauze. The quantity of compound, butyric acid or propionic acid, or of ethyl propanoate (odor) volatilized in the behavior chamber was equivalent to that of the device used for the courtship. Likewise, the flies were never in direct contact with the composition (no taste perception), only with the volatile particles (olfactory perception). The flies tested were introduced simultaneously, by group, into the enclosure. Their behavior was filed for 10 minutes, and a time required for leading to anesthesia was calculated over this period, depending on the concentration of butyric acid or propionic acid or ethyl propanoate used. The flies were considered anesthetized when they stopped moving and fell on their side.

[3] = system: Drosophila melanogaster; experiment: Courtship of male Drosophila melanogaster towards females, olfactory exposure
Experimental: 1.1. Drosophila melanogaster
Drosophilae (Drosophila melanogaster) aged from 3 to 9 days are used for the courtship tests as described Grosjean et al. Nat. Neurosci. 2008 [1] and Grosjean et al. Nature 2011 [2].
Naive males were isolated in tubes, individually, upon emerging from their puparium. The females were selected to be virgin and were stored in tubes of 10 individuals. These tubes were placed in incubators, for which a temperature of 25° C. was kept constant. A 12 hour/12 hour day/night cycle was applied. The courtship tests were carried out in the morning, between 1 and 3 hours after the start of the day cycle.
These tests were conducted in devices made up of 6 cylindrical, transparent, and closed alveolae (see FIG. 15) of a volume of […]. A disk of filter paper (Whatman, filter paper 42) of 6 mm in diameter is deposited on the base thereof. Said paper is soaked in 10 μl of a composition comprising propionic acid and/or butyric acid diluted in paraffin oil (solvent). The different compositions used comprised, respectively, 0.5% or 1% propionic acid, 0.5% or 1% butyric acid. For each concentration, the number of pairs of flies tested was, respectively, 23, 23, 19 and 19. At the time of the test, 1 pair per alveolus was introduced into the behavior device (i.e. 6 pairs). Said pair was made up of one male and one female, each originating from the tubes mentioned above. The drosophilae were physically isolated from the odor source (said paper) by a netting which prevents any direct contact, the female had been decapitated but remained alive. In addition, the device was illuminated by red light (red far from the wavelength of between 625 and 630 nm) so as to eliminate any behavior associated with the visual perception which, in D. melanogaster, is between 300 and 550 nm)). Thus, the behavior observed depends only on the olfactory perception by the male of the compound introduced into the device at the time of the assembly thereof.
The behavior was filmed for 10 minutes, using a Sony HDR-XR550 camera. Each film was recorded and kept for subsequent analysis.
A proportion of courtship, expressed as a percentage, was then calculated, and represents the time during which the male courts the female during the 10 minutes of recording the test. The courtship of the Drosophila melanogaster is decomposed into recognizable stereotypical events, and described precisely in scientific literature (Greenspan & Ferveur, Annu. Rev. Genet, 2000 [3]). A statistical test (Mann-Whitney test (nonparametric test, GraphPad, Prism8)) was carried out in order to evaluate the influence, on the behavior, of the composition in which the paper is soaked; this involving a release of volatile compounds and an odor perceived by the drosophilae. […]

[4] = system: Drosophila melanogaster; experiment: Test of the reversible effect (waking from anesthesia), Drosophila melanogaster; conditions: after 10 minutes at 2%, then placed in empty device
Experimental: Test of the Reversible Effect.
The devices used were those described for the study of the anesthesia such as described in example 2 above. The application conditions for the propanoic acid or the butyric acid were similar to those of the anesthesia test described in example 2 above. The flies were brought into the presence of 2% propanoic acid or 2% butyric acid for 10 minutes. At the end of 10 minutes of observation of the anesthesia (example 2 above), the flies were removed from the device and placed into another device which was identical but “empty”, i.e. without solvent or odor (odor=2% propanoic acid in the solvent or 2% butyric acid in the solvent, respectively). For each empty device, the total number of flies introduced and observed were 20 males and 30 females previously exposed to 2% propanoic acid and removed from this anesthetizing environment, and 6 males and 7 females previously exposed to 2% butyric acid and removed from this anesthetizing environment.
The flies were considered as woken from the anesthesia when they got back up on their legs and moved in the device.
The time required for waking the flies following their anesthesia was then measured.

[5] = 1% in paraffin oil, compared with solvent alone, red light, decapitated female

Row | SMILES | reduction of the proportion of copulation ([1]; 0.1% in solvent) [%] | proportion of copulation ([1]; 0.5% in solvent) | reduction of the proportion of copulation ([1]; 0.5% in solvent) [%] | proportion of copulation ([1]; 1% in solvent) | time elapsed leading to anesthesia ([2]; female flies) | time elapsed leading to anesthesia ([2]; male flies) | proportion of courtship of males towards females ([3]; 0.5% in paraffin oil, compared with solvent alone) | proportion of courtship of males towards females [3, 5] | time required to wake up fully from the anesthesia ([4]; females) [min] | time required to wake up fully from the anesthesia ([4]; males) [min] | proportion of courtship of males towards females ([3]; 1% in solvent, compared with 0.5% in solvent)
1 | CCCC(=O)O [butyric acid] | 70.55 | 3.03% | 83.03 | zero | approximately 17 minutes | approximately 5 minutes | significantly reduced | significantly reduced | 4.5 | 6 | 
2 | CCC(=O)O [propionic acid] | 58 | zero |  | zero | approximately 5 minutes | approximately 3 minutes |  | significantly changed | 9 | 23 | significantly reduced

— patent US20220347085A1, “REPELLENT COMPOSITION AND USES” (Université Bourgogne, priority 2019, published 2022)
